According to patent publication US20070208043A1, “Use of Serum Amyloid A Gene in Diagnosis and Treatment of Glaucoma and Identification of Anti-Glaucoma Agents” (ALCON, INC., priority 2003, published 2007):
Entries after “also recorded” stand apart in the source; their conditions may differ. Where two headings read alike, the source gives them in different places.

Assays:
[1] = test system: SAA stimulated IL-8 secretion in HL-60 cells; assay: Inhibition of SAA stimulated IL-8 secretion in HL-60 cells (IL-8 in media by ELISA); type: cell-based; settings: for Times more effective than SB203580: HL60 cells, inhibition curves; for IC50: Homo sapiens, read-out: Calculated IC50, inhibition of SAA stimulated IL-8 secretion
Description: (§1) FIG. 12. […] NTM650-03, p9 or HL-60 cells were treated in serum-free DMEM for 4 hours with 1 μg/ml SAA and the indicated concentrations of SB202580. IL-8 was measured in the media by ELISA.
FIG. 13. […] IL-8 was measured in the media by ELISA.
(§2) One pathway for upregulation of IL-8 is through activation of MAP kinases.

[2] = test system: SAA induced IL-8 secretion in TM cells; assay: Inhibition of SAA induced IL-8 secretion in TM cells (IL-8 in media by ELISA); type: cell-based
Description: FIG. 11. Effect of MAP p38 kinase inhibitors on induction of IL-8 by SAA treatment (1 μg/ml) in TM cells. […] IL-8 was measured in the media by ELISA.
as §1, §2

[3] = test system: Adv.SAA2-induced IOP in mouse; assay: Mouse IOP after intravitreal injection of Adv.SAA2 + anti-CD40L; topical p38 MAPK inhibitor; settings: topical 1% b.i.d.
Description: Contralateral eye of each animal was not injected. In addition to Adv, each animal received IP injection of anti-CD40L (0.5 mg/injection) on days −1, 0, 1, 2, 5, 9, & 14 to prolong the expression period of the Adv.SAA2. Mouse IOP was measured by Tonolab in a mask way. Mean of IOP for each eye was obtained from 18 to 30 measurements.

plasma SAA concentration = settings: in vivo; cited from earlier work
[4] = test system: perfused human anterior segments; assay: Perfusion cultured human eyes treated with recombinant SAA; settings: 1 μg/mL, all five eyes
Description: FIG. 9. Effect of recombinant human Serum Amyloid A (rhSAA, 1 μg/mL; treatment started at time 0) on IOP of perfused human anterior segments.
FIG. 10. Effect of recombinant human Serum Amyloid A (rhSAA, 1 μg/mL; treatment started at time 0) on interleukin-8 (IL-8) level in the perfusate of perfused human anterior segments.
Five pairs of human eyes were perfused with media containing either recombinant SAA (1 μg/mL) (experimental eye) or an equivalent volume of vehicle (control eye). At the end of the culture period, 4 quadrants of each eye were examined by transmission electron microscopy to determine TM tissue viability. Perfusate of each eye was collected and used for ELISA measurement of IL-8 level. […] The change in IOP correlated with SAA-induced increase in interleukin-8 in the perfusates. All five pairs of eyes had acceptable post-perfusion TM viability scores.

HL-60 cells = assay: IL-8 secretion by HL-60 cells in response to rhSAA; type: cell-based; settings: four hours, increasing concentrations
Description: FIG. 5. IL-8 secretion by HL-60 cells in response to increasing concentrations of rhSAA.
Cytokine-like properties of SAA include induction of IL-8 secretion by neutrophils. (Furlaneto and Campa, 2002; He et al. 2003). HL-60 cells, a promyelocytic cell line, was identified that responds to SAA with increased IL-8 secretion, and can be used for in vitro assays of SAA function. HL-60 cells were treated for four hours with increasing concentrations of recombinant human SAA, and IL-8 was measured in the media by ELISA. […] HL-60 cells can be used as a surrogate cell line for functional assays to identify agents that alter SAA function and expression levels.

[5] = read-out: % Inhibition of SAA induced IL-8 secretion
[6] = 10 μM, TM cells, read-out: % Inhibition of SAA induced IL-8 secretion
[7] = 50 μM, TM cells, read-out: % Inhibition of SAA induced IL-8 secretion
[8] = 1 μM, TM cells, read-out: % Inhibition of SAA induced IL-8 secretion

Q: With `Fc1ccc(-c2c(-c3ccncc3)[nH]c3cccnc23)cc1` [4-azaindole, 3-(4-fluorophenyl)-2-(pyridin-4-yl)-1H-pyrrolo[3,2-b]pyridine] as the molecule, how does the “Times more effective than SB203580” value [1] read?
A: approximately 10 times

Q: And the IC50 ([1]; HL-60, 4 h)?
A: 300 nM

Q: And the “Inhibition of SAA induced IL-8 expression (in words)” value ([2]; TM cells)?
A: most potent

Q: What about the inhibition at 10 µM [2, 5] of the same molecule?
A: 22.6%

Q: And the inhibition at 50 µM [2, 5]?
A: 94.3%

Q: And the “Effect on IOP in the non-injected eyes” value [3]?
A: did not affect IOP

Q: What about the “Effect on Ad.SAA2-induced ocular hypertension (IOP)” value ([3]; days -1 to 7 and 13 to 17, Ad.SAA2 2×10^7 pfu/eye + antiCD40L) of the same molecule?
A: significantly inhibited; also recorded: blocked

Q: What about the “Effect on iris hyperemia in the injected eyes” value ([3]; Ad.SAA2-injected eyes) of the same molecule?
A: did not affect hyperemia

Q: And the “Time to lower IOP to baseline after drug administration was resumed at day 13” value ([3]; Ad.SAA2-injected mouse eyes)?
A: 3 days

Q: What does the source list for `Cc1ccc(-n2nc(C(C)(C)C)cc2NC(=O)Nc2ccc(OCCN3CCOCC3)c3ccccc23)cc1` [BIRB-796, 1-(5-tert-butyl-2-p-tolyl-2H-pyrazol-3-yl)-3(4-(2-morpholin-4-yl-ethoxy)naph-thalen-1-yl)urea]?
A: Times more effective than SB203580 [1]: approximately 10 times; IC50 ([1]; HL-60 cells, serum-free DMEM, 4 hours, 1 μg/ml SAA): 500 nM; inhibition at 10 µM [2, 6]: 28.9%; inhibition at 50 µM [2, 7]: 78.1%; Inhibition of SAA induced IL-8 expression (in words) ([2]; TM cells): most potent

Q: For `COc1cccc(-c2cc(=O)c3ccccc3o2)c1N` [PD98059, 2′-amino-3′-methoxyflavone], which inhibition at 50 µM [2, 7] is on record?
A: 34%

Q: What does the source list for `Oc1ccc(-c2nc(-c3ccc(F)cc3)c(-c3ccncc3)[nH]2)cc1` [SB202190, 4-[4-(4-fluorophenyl)-5-(4-pyridinyl)-1H-imidazol-2-yl]phenol]?
A: inhibition at 1 µM [2, 8]: 17.2%; inhibition at 10 µM [2, 6]: 43.3%; inhibition at 50 µM [2, 7]: 38.2%

Q: Which “Inhibition of SAA induced IL-8 expression (in words)” value ([2]; TM cells) does the source give for `C[S+]([O-])c1ccc(-c2nc(-c3ccc(F)cc3)c(-c3ccncc3)[nH]2)cc1` (stereo not shown) [SB203580, 4-(4-fluorophenyl)-2-(4-methylsulfinylphenyl)-5-(4-pyridyl)-1H-imidazole] here?
A: most potent

Q: What about the inhibition at 1 µM [2, 5] of the same molecule?
A: 16.3%

Q: And the inhibition at 10 µM [2, 5]?
A: 38.1%

Q: What about the inhibition at 25 µM [2, 5] of the same molecule?
A: 61%

Q: And the inhibition at 50 µM [2, 5]?
A: 73.8%

Q: What about the inhibition at 100 µM [2, 5] of the same molecule?
A: 98.7%

Q: For `N#CC(=C(/N)Sc1ccccc1N)/C(C#N)=C(/N)Sc1ccccc1N` [U0126, 1,4-diamino-2,3-dicyano-1,4-bis(2-aminophynyltio)butadiene], which inhibition at 1 µM [2, 8] is on record?
A: 30.9%

Q: What about the inhibition at 10 µM [2, 6] of the same molecule?
A: 50.6%

Q: And the inhibition at 50 µM [2, 7]?
A: 53%

Q: Which “Plasma SAA concentration” value (plasma SAA concentration) does the source give for `Cc1cccc(Nc2cc(Cl)nc(SCC(=O)O)n2)c1C` [WY 14643, (4-chloro-6-(2,3-xylidino)-2-pryrimidinylthiol)-acetic acid] here?
A: reduces

B1: recombinant SAA: recombinant human Serum Amyloid A protein (protein, UniProt P0DJI8 19-122, looked up)
Serum amyloid A-1 protein: RSFFSFLGEAFDGARDMWRAYSDMREANYIGSDKYFHARGNYDAAKRGPGGAWAAEVITDARENIQRFFGHGAEDSLADQAANEWGRSGKDPNHFRPAGLPEKY
Q: What does the source list for B1?
A: IL-8 level in perfusate [4]: elevated IL-8 level; IOP of perfused human eyes ([4]; within 24 h of treatment): elevated IOP; IL-8 secretion (HL-60 cells): increased in a dose dependent manner
